In patent US11787812B2, “Substituted pyrazolo[4,3-d]pyrimidines and imidazo[5,1 -f][1,2,4]triazines as androgen receptor and phosphodiesterase dual inhibitors” (ILDONG PHARMACEUTICAL CO., LTD., priority 2020, dated 2023):
Read-outs that look alike come from different tables or passages of the source.

Assays:
human PDE-5A1 = human PDE-5A1 (Homo sapiens (Human), UniProt O76074); test: Human PDE-5A1 inhibition assay (fluorescence polarization, FAM-cGMP); assay type: biochemical; details: human PDE5A1, 100 nM FAM-cGMP, 60 minutes room temperature
Description: This example illustrates the in vitro inhibition of human PDE-5A1 by exemplary compounds of this disclosure (e.g., as described herein).
Sildenafil citrate (Catalog no. LKT-S3313, Axxora, San Diego, CA), Vardenafil hydrochloride trihydrate (Catalog no. SML2103, Sigma-Aldrich, St. Louis, MO), PDE Assay Buffer (Catalog no. 60393, BPS bioscience, San Diego, CA), PDE Binding Agent (Catalog no. 60390, BPS bioscience, San Diego, CA) and PDE Binding Agent Diluent (cGMP, Catalog no. 60392, BPS bioscience, San Diego, CA) were used for assays. Test compounds were supplied by Ildong Pharmaceuticals Co., Ltd.
The serial dilution of the compounds was first performed in 100% DMSO with the highest concentration at 1 mM and 0.1 mM. Each intermediate compound dilution (in 100% DMSO) will then get directly diluted 10× fold into assay buffer for 10% DMSO and 5 μL of the dilution was added to a 50 μL reaction so that the final concentration of DMSO is 1% in all reactions.
The enzymatic reactions were conducted at room temperature for 60 minutes in a 50 μL mixture containing PDE assay buffer, 100 nM FAM-cGMP, a PDE enzyme (Table 2) and the test compounds.
After enzymatic reaction, 100 μL of a binding solution (1:100 dilution of the binding agent with the binding agent diluent) was added to each reaction and the reaction was performed at room temperature for 60 minutes.
Fluorescence intensity was measured at excitation of 485 nm and an emission of 528 nm using a Tecan Infinite M1000 microplate reader.
PDE activity assays were performed in duplicate at each concentration. Fluorescence intensity is converted to fluorescence polarization using the Tecan Magellan6 software. The fluorescence polarization (FPt) in absence of the compound in each data set was defined as 100% activity. In the absence of PDE and the compound, the value fluorescent polarization (FPb) in each data set was defined as 0% activity. The percent activity in the presence of compound was calculated according to Equation 1:
[formula] where FP=the fluorescence polarization in the presence of the compound.
The values of % activity versus a series of compound concentrations were then plotted using non-linear regression analysis of Sigmoidal dose-response curve generated with Equation 2:
[formula] where Y=percent activity, B=minimum percent activity, T=maximum percent activity, X=logarithm of compound, and Hill Slope=slope factor or Hill coefficient. The IC50 value was determined by the concentration causing a half-maximal percent activity. Results

Human androgen receptors = Human androgen receptors (Homo sapiens (Human), UniProt P10275, T878A); test: Androgen receptor (AR) radioligand binding assay
Procedure: Methods employed in this study have been adapted from the following literature procedure.
Human androgen receptors obtained from human LNCaP cells are used in modified HEPES buffer pH 7.4. […] Non-specific binding is estimated in the presence of 1 μM testosterone. […] (See, e.g., Traish, A. M et al., Binding of 7α, 17α-dimethyl-19-nortestosterone (Mibolerone) to androgen and progesterone receptors in human and animal tissues. Endocrinology. 118(4): 1327-1333, 1986).
Compounds are screened at 10 μM.
Where presented, IC50 values were determined by a non-linear, least squares regression analysis using MathIQ™ (ID Business Solutions Ltd., UK).

androgen receptor (AR) = androgen receptor (AR) (Homo sapiens (Human), UniProt P10275); test: Androgen receptor (AR) reporter assay, antagonist screen activated by R1881; assay type: cell-based; details: AR-UAS-bla GripTite 293 cells, antagonist mode, R1881 at EC80
Procedure: The protocols and results of this Example were carried out and obtained by Thermofisher Scientific.
Test compounds were received at 1000× (or greater) of the desired starting concentration in 100% DMSO. If compounds were supplied at greater that 1000× concentration, an initial dilution is made in 100% DMSO to bring the compounds to 1000× concentration. The 1000× test compounds were serially diluted (10 point ½-log increments) in 100% DMSO.
The Substrate Loading Solution consists of three Life Technologies reagents: Solution A (10 mM LiveBLAzer™-FRET B/G Substrate), Solution B and Solution C.
Androgen Receptor (AR)—Antagonist Screen, Activated by R1881
AR-UAS-bla GripTite™ 293 cells were thawed and resuspended in Assay Media (DMEM phenol red free, 2% CD-treated FBS, 0.1 mM NEAA, 1 mM Sodium Pyruvate, 100 U/mL/100 μg/mL Pen/Strep) to a concentration of 312,500 cells/mL. 4 μL of a 10× serial dilution of Cyproterone Acetate (control antagonist starting concentration, 3,160 nM) or compounds are added to appropriate wells of a Poly-D-Lysine assay plate. 32 μL of cell suspension was added to the wells and pre-incubated at 37° C./5% CO2 in a humidified incubator with compounds and control antagonist titration for 30 minutes. 4 μL of 10× control agonist R1881 at the pre-determined EC80 concentration was added to wells containing the control antagonist or compounds. The plate was incubated for 16-24 hours at 37° C./5% CO2 in a humidified incubator. 8 μL of 1 μM Substrate Loading Solution is added to each well and the plate was incubated for 2 hours at room temperature. The plate was read on a fluorescence plate reader (Tecan Safire^2).

[1] = receptors from human LNCaP cells, 0.5 nM [3H]Methyltrienolone, 20 hours at 4° C., read-out: AR IC50

Sequence of androgen receptor (AR) (P10275 other isoform, or with tags, fused parts or gaps): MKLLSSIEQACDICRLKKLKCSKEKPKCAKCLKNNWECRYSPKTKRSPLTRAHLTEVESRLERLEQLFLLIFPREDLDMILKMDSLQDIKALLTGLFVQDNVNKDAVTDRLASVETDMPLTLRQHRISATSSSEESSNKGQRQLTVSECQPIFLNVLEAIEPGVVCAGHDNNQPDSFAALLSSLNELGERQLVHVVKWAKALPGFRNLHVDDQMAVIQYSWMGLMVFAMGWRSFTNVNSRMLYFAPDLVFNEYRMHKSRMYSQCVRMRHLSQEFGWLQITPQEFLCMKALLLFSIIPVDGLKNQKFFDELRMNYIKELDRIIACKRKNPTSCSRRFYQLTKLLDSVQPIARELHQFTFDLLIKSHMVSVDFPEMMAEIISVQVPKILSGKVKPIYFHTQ
Sequence of Human androgen receptors (P10275 whole entry T878A): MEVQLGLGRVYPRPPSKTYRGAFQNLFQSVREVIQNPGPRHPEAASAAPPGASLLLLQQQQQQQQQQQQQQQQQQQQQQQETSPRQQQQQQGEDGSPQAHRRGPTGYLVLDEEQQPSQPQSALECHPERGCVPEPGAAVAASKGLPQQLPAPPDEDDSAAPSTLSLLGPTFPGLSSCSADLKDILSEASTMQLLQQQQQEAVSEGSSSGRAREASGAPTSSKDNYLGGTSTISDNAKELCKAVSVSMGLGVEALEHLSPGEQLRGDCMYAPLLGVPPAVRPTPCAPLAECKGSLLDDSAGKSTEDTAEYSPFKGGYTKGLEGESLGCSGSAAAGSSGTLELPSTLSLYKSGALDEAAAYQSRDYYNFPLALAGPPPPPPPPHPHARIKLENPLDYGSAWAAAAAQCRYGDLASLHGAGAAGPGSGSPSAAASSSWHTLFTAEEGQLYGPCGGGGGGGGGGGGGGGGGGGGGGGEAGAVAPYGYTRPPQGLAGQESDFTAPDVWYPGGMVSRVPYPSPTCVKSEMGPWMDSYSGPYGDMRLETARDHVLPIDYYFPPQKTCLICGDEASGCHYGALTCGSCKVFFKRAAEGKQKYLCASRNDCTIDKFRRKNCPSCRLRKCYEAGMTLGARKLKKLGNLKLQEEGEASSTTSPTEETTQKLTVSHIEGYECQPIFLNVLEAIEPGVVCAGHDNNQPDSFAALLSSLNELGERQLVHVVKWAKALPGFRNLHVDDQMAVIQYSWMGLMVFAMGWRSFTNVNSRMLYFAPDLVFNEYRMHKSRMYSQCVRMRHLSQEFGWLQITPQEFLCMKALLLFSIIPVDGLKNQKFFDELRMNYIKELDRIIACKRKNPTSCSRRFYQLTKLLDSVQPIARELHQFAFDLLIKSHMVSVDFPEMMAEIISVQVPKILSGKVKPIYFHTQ

| Compound | IC50 (human PDE-5A1) | IC50 (Human androgen receptors; [1]) | IC50 (androgen receptor (AR)) | IC50 (Human androgen receptors; read-out: AR IC50) | IC50 (Human androgen receptors) |
| --- | --- | --- | --- | --- | --- |
| CCCc1nc(C)c2c(=O)[nH]c(-c3cc(N4C(=S)N(c5ccc(C#N)c(C(F)(F)F)c5)C(=O)C4(C)C)ccc3OCC)nn12 [Compound 18, 4-(3-(4-ethoxy-3-(5-methyl-4-oxo-7-propyl-3,4-dihydroimidazo[5,1-f][1,2,4]triazin-2-yl)phenyl)-4,4-dimethyl-5-oxo-2-thioxoimidazolidin-1-yl)-2-(trifluoromethyl)benzonitrile] | ≤ 10 nM | < 0.05 µM | ≤ 0.5 µM |  |  |
| CCCc1nn(C)c2c(=O)[nH]c(-c3cc(N4C(=S)N(c5cnc(C#N)c(C(F)(F)F)c5)C(=O)C4(C)C)ccc3OCC)nc12 [Compound 19, 5-(3-(4-ethoxy-3-(1-methyl-7-oxo-3-propyl-6,7-dihydro-1H-pyrazolo[4,3-d]pyrimidin-5-yl)phenyl)-4,4-dimethyl-5-oxo-2-thioxoimidazolidin-1-yl)-3-(trifluoromethyl)picolinonitrile] | > 100 nM | > 0.2 µM | 0.5 to 1 µM |  |  |
| CCCc1nc(C)c2c(=O)[nH]c(-c3cc(N4C(=S)N(c5cnc(C#N)c(C(F)(F)F)c5)C(=O)C4(C)C)ccc3OCC)nn12 [Compound 20, 5-(3-(4-ethoxy-3-(5-methyl-4-oxo-7-propyl-3,4-dihydroimidazo[5,1-f][1,2,4]triazin-2-yl)phenyl)-4,4-dimethyl-5-oxo-2-thioxoimidazolidin-1-yl)-3-(trifluoromethyl)picolinonitrile] | ≤ 10 nM |  | ≤ 0.5 µM | 0.05 to 0.2 µM |  |
| CCCc1nn(C)c2c(=O)[nH]c(-c3cc(N4C(=S)N(c5ccc(C#N)c(C(F)(F)F)c5)C(=O)C45CCC5)ccc3OCC)nc12 [Compound 21, 4-(5-(4-ethoxy-3-(1-methyl-7-oxo-3-propyl-6,7-dihydro-1H-pyrazolo[4,3-d]pyrimidin-5-yl)phenyl)-8-oxo-6-thioxo-5,7-diazaspiro[3.4]octan-7-yl)-2-(trifluoromethyl)benzonitrile] | > 100 nM | > 0.2 µM | ≤ 0.5 µM |  |  |
| CCCc1nc(C)c2c(=O)[nH]c(-c3cc(N4C(=S)N(c5ccc(C#N)c(C(F)(F)F)c5)C(=O)C45CCC5)ccc3OCC)nn12 [Compound 22, 4-(5-(4-ethoxy-3-(5-methyl-4-oxo-7-propyl-3,4-dihydroimidazo[5,1-f][1,2,4]triazin-2-yl)phenyl)-8-oxo-6-thioxo-5,7-diazaspiro[3.4]octan-7-yl)-2-(trifluoromethyl)benzonitrile] | ≤ 10 nM |  | ≤ 0.5 µM |  | 0.05 to 0.2 µM |
| CCCc1nn(C)c2c(=O)[nH]c(-c3cc(N4C(=S)N(c5cnc(C#N)c(C(F)(F)F)c5)C(=O)C45CCC5)ccc3OCC)nc12 [Compound 23, 5-(5-(4-ethoxy-3-(1-methyl-7-oxo-3-propyl-6,7-dihydro-1H-pyrazolo[4,3-d]pyrimidin-5-yl)phenyl)-8-oxo-6-thioxo-5,7-diazaspiro[3.4]octan-7-yl)-3-(trifluoromethyl)picolinonitrile] | > 100 nM | > 0.2 µM | ≤ 0.5 µM |  |  |
| CCCc1nc(C)c2c(=O)[nH]c(-c3cc(N4C(=S)N(c5ccc(C#N)c(C(F)(F)F)c5)C(=O)C4C)ccc3OCC)nn12 (stereo not drawn) [Compound 26, 4-(3-(4-ethoxy-3-(5-methyl-4-oxo-7-propyl-3,4-dihydroimidazo[5,1-f][1,2,4]triazin-2-yl)phenyl)-4-methyl-5-oxo-2-thioxoimidazolidin-1-yl)-2-(trifluoromethyl)benzonitrile] | ≤ 10 nM | > 0.2 µM | > 0.1 µM |  |  |
| CCCc1nc(C)c2c(=O)[nH]c(-c3cc(S(=O)(=O)NC4CN(c5ccc(C#N)c(C(F)(F)F)c5)C4)ccc3OCC)nn12 [Compound 29, N-(1-(4-cyano-3-(trifluoromethyl)phenyl)azetidin-3-yl)-4-ethoxy-3-(5-methyl-4-oxo-7-propyl-3,4-dihydroimidazo[5,1-f][1,2,4]triazin-2-yl)benzenesulfonamide] | ≤ 10 nM |  | 0.5 to 1 µM |  | 0.05 to 0.2 µM |
| CCCc1nc(C)c2c(=O)[nH]c(-c3cc(S(=O)(=O)NC4CCN(c5ccc(C#N)c(C(F)(F)F)c5)CC4)ccc3OCC)nn12 [Compound 30, N-(1-(4-cyano-3-(trifluoromethyl)phenyl)piperidin-4-yl)-4-ethoxy-3-(5-methyl-4-oxo-7-propyl-3,4-dihydroimidazo[5,1-f][1,2,4]triazin-2-yl)benzenesulfonamide] | ≤ 10 nM | < 0.05 µM | ≤ 0.5 µM |  |  |
| CCCc1nc(C)c2c(=O)[nH]c(-c3cc(S(=O)(=O)NC4CCN(c5ccc(C#N)c(C(F)(F)F)c5)C4)ccc3OCC)nn12 (stereo not drawn) [Compound 31, N-(1-(4-cyano-3-(trifluoromethyl)phenyl)pyrrolidin-3-yl)-4-ethoxy-3-(5-methyl-4-oxo-7-propyl-3,4-dihydroimidazo[5,1-f][1,2,4]triazin-2-yl)benzenesulfonamide] | ≤ 10 nM |  | 0.5 to 1 µM |  | 0.05 to 0.2 µM |
| CCCc1nc(C)c2c(=O)[nH]c(-c3cc(S(=O)(=O)NC4CCN(c5ccc(C#N)c(C(F)(F)F)c5)C4=O)ccc3OCC)nn12 (stereo not drawn) [Compound 32, N-(1-(4-cyano-3-(trifluoromethyl)phenyl)-2-oxopyrrolidin-3-yl)-4-ethoxy-3-(5-methyl-4-oxo-7-propyl-3,4-dihydroimidazo[5,1-f][1,2,4]triazin-2-yl)benzenesulfonamide] | ≤ 10 nM | > 0.2 µM | > 0.1 µM |  |  |
| CCCc1nc(C)c2c(=O)[nH]c(-c3cc(S(=O)(=O)NC4CC(=O)N(c5ccc(C#N)c(C(F)(F)F)c5)C4)ccc3OCC)nn12 (stereo not drawn) [Compound 33, N-(1-(4-cyano-3-(trifluoromethyl)phenyl)-5-oxopyrrolidin-3-yl)-4-ethoxy-3-(5-methyl-4-oxo-7-propyl-3,4-dihydroimidazo[5,1-f][1,2,4]triazin-2-yl)benzenesulfonamide] | ≤ 10 nM | > 0.2 µM | > 0.1 µM |  |  |
| CCCc1nc(C)c2c(=O)[nH]c(-c3cc(N4C(=S)N(c5ccc(C#N)c(C(F)(F)F)c5)C(=O)C45CCOC5)ccc3OCC)nn12 (stereo not drawn) [Compound 34, 4-(1-(4-ethoxy-3-(5-methyl-4-oxo-7-propyl-3,4-dihydroimidazo[5,1-f][1,2,4]triazin-2-yl)phenyl)-4-oxo-2-thioxo-7-oxa-1,3-diazaspiro[4.4]nonan-3-yl)-2-(trifluoromethyl)benzonitrile] | ≤ 10 nM |  | ≤ 0.5 µM |  | 0.05 to 0.2 µM |
